In PubChem BioAssay (NCI):
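Each compound was tested at five concentrations against cells in 96-well plates for 48 hours. GI50 marks 50% less growth. TGI marks complete inhibition of growth.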

What was measured:
Experiment in all cases: growth of human tumour cells (NCI), 48 h
[1] = tested on: ACHN renal
[2] = tested on: EKVX NSCLC
[3] = tested on: HCT-116 colon
[4] = tested on: IGROV1 ovarian
[5] = tested on: K-562 leukemia
[6] = tested on: MOLT-4 leukemia
[7] = tested on: NCI-H23 lung
[8] = tested on: NCI-H460 lung
[9] = tested on: NCI-H522 lung
[10] = tested on: RXF 393 renal
[11] = tested on: SF-539 CNS
[12] = tested on: SK-MEL-5 melanoma
[13] = tested on: SK-OV-3 ovarian
[14] = tested on: SN12C renal
[15] = tested on: SNB-75 CNS
[16] = tested on: U251 CNS
[17] = tested on: UACC-257 melanoma
[18] = tested on: UACC-62 melanoma
[19] = tested on: UO-31 renal

SMILES | TGI [1] [µM] | TGI [2] [µM] | TGI [3] [µM] | TGI [4] [µM] | TGI [5] [µM] | TGI [6] [µM] | TGI [7] [µM] | TGI [8] [µM] | TGI [9] [µM] | TGI [10] [µM] | TGI [11] [µM] | TGI [12] [µM] | TGI [13] [µM] | TGI [14] [µM] | TGI [15] [µM] | TGI [16] [µM] | TGI [17] [µM] | TGI [18] [µM] | TGI [19] [µM] | GI50 [5] [µM]
O=[N+]([O-])c1ccc(NNN=Nc2ccc(-c3nc4ccccc4s3)cc2)c([N+](=O)[O-])c1 | 57.3 | 44.4 | 33.8 | 49.5 | 86.2 | 53.5 | 59.3 | 56.3 | 70.9 | 50.5 | 42.4 | 29.3 | > 100 | 50.8 | 82.1 | 76.3 | 36 | 27.7 | 51.3 | 
O=C(N/N=C/c1cc(Br)cc(Br)c1[O-])c1ccccc1O.O=C(N/N=C/c1cc(Br)cc(Br)c1[O-])c1ccccc1O.[Co+2] | 11.1 | 11.3 | 17.7 | 8.44 | 16.2 | 14.3 | 7.57 | 20 | 2.49 | 10.5 | 4.66 | 2.96 | 5.57 |  | 15.3 | 9.38 | 17.6 | 1.78 | 10.6 | 0.643
O=C(CC(Cl)=C(Cl)Cl)c1ccccc1 | > 100 |  | 45.2 | > 100 | 50 | 28.6 | > 100 | > 100 | 69.6 | 63.8 | > 100 | > 100 | > 100 |  | > 100 | > 100 | 70 | > 100 | > 100 | 
c1ccc([I+]c2ccccc2)cc1 | > 100 | > 100 | > 100 | > 100 | > 100 | > 100 | > 100 | > 100 | > 100 | > 100 | > 100 | > 100 | > 100 | > 100 |  | > 100 | > 100 |  | > 100 | 
CC1=CC2c3cccc4[nH]cc(c34)CC2N(C)C1 (stereo not given) |  | > 100 | > 100 | > 100 | > 100 | > 100 | > 100 | > 100 | > 100 | > 100 | > 100 | > 100 | > 100 | > 100 | > 82.4 | > 100 | > 100 | > 100 | > 76.9 | 
BrCC[N+]12CC[N+](CCBr)(CC1)C2 | > 100 | > 100 | > 100 | > 100 | > 100 | > 100 | > 100 | > 100 | > 100 | > 100 | > 100 | > 100 | > 100 | > 100 | > 100 | > 100 | > 100 | > 100 | > 100 | 
O=C(O)C1CCCCN1c1ccccc1[N+](=O)[O-] (stereo not given) | > 100 | > 100 | > 100 | > 100 | > 100 | > 100 | > 100 | > 100 | > 100 | > 100 | > 100 | > 100 | > 100 | > 100 | > 100 | > 100 | > 100 | > 100 | > 100 | 
CC(Cl)CC(=O)OCC1CCCN2CCCCC12 (stereo not given) | > 100 | > 100 | > 100 |  | > 100 | > 100 | > 100 | > 100 |  | > 100 | > 100 | > 100 | > 100 | > 100 | > 100 | > 100 | > 100 | > 100 | > 100 | 
Cc1ccc2c(=O)c3ccccc3sc2c1 | > 100 | > 100 | > 100 | > 100 | > 100 | > 100 | > 100 | > 100 | > 100 | > 100 | > 100 | > 100 | > 100 | > 100 |  | > 100 |  | > 100 | > 100 | 
CCC1NC(N=Nc2ccc([N+](=O)[O-])cc2)(P(=O)(OC(C)C)OC(C)C)OC1=O (stereo not given) | > 100 | > 100 | > 100 | > 100 | > 100 | > 100 | > 100 |  | > 100 |  | > 100 | > 100 | > 100 | > 100 | 97.4 | > 100 | > 100 | > 100 | > 100 | 
O=C(Nc1ccc(Cl)cc1)c1cc(S(=O)(=O)Nc2nnc3c(Cl)cc(C(F)(F)F)cn23)c(S)cc1Cl | > 100 | > 100 | > 100 | > 100 | > 100 | > 100 | > 100 | > 100 | > 100 | > 100 | > 100 | > 100 | > 100 | > 100 |  | > 100 | > 100 |  | > 100 | 
CCn1cnnc1-c1nsc2ccccc12 | > 100 | > 100 | > 100 | > 100 | > 100 |  | > 100 | > 100 |  | > 100 | > 100 | > 100 |  | > 100 | 41.8 | > 100 | > 100 | > 100 | > 100 | 
C[C@@H]1CC[C@@]2(OC1)O[C@H]1C[C@H]3[C@@H]4CC[C@H]5C[C@@H](OC6OC(CO)C(OC7OC(CO)C(O)C(OC8OCC(O)C(O)C8O)C7OC7OC(CO)C(O)C(O)C7O)C(O)C6O)[C@H](O)C[C@]5(C)[C@H]4CC[C@]3(C)[C@H]1[C@@H]2C (stereo not given in full) | 8.87 | 21 | 17.8 | 8.31 | > 100 | 31.1 | 7.39 | 4.17 | 2.05 | 27.1 | 12.8 | 45.8 | 29.8 |  | 27.9 | 12.4 | 39.9 | 47.3 | 17.8 | 
CC(=O)Nc1cccc(N=NN(C)C)c1 |  | > 100 | > 100 | > 100 | > 100 | > 100 | > 100 | > 100 | > 100 | > 100 | > 100 | > 100 | > 100 | > 100 | > 100 | > 100 | > 100 | > 100 | > 100 | 
CN(Cc1cnc2c(N)nc(N)nc2n1)c1ccc(Cl)cc1 | > 100 | > 100 |  | > 100 | > 100 | > 100 | > 100 | > 100 |  | 61.5 | 70.9 | > 100 | > 100 | > 100 | 29.6 | > 100 | > 100 | > 100 | > 100 | 
